Measurements: US8557830B2, “RAF kinase modulators and methods of use” (Amgen Inc., priority 2007, dated 2013)

Experiments:
recombinant HuBraf V600E = recombinant HuBraf V600E (Homo sapiens, UniProt P15056, V600E); test: B-raf Homogenous Time Resolved Fluorescent (HTRF) kinase assay; type: biochemical; conditions: Table I; human mutant B-raf V600E, substrate MEK1, 10 uM ATP; read-out: HTRF Enzyme assay Data IC50
Description: B-raf-Homogenous Time Resolved Fluorescent (HTRF) Kinase Assay
The final concentration of the kinase reaction buffer is 50 mM Tris-HCL pH 7.5, 10 mM MgCl2, 0.5% glucose, 0.5 mM DTT, 0.01% BSA. […] The detection reaction proceeds for one hour and is read on a RubyStar (BMG Labtech) counter. IC50s for the test compounds are generated using Excel-XLfit software.

V600E mutant B-raf = target: T1, V600E mutant B-raf (Homo sapiens, UniProt P15056, V600E); test: B-raf cell-based assay (ratio of phospho-ERK1/2 to total ERK1/2 in A375 cells); conditions: Table I; A375 human melanoma cells, P-ERK/total ERK
T1 construct: A375 cells, a human melanoma cell line having the V600E mutant B-raf is used in this assay; endogenous in cells; host or cells: A375 human melanoma cells
T1 sequence (P15056 whole entry V600E): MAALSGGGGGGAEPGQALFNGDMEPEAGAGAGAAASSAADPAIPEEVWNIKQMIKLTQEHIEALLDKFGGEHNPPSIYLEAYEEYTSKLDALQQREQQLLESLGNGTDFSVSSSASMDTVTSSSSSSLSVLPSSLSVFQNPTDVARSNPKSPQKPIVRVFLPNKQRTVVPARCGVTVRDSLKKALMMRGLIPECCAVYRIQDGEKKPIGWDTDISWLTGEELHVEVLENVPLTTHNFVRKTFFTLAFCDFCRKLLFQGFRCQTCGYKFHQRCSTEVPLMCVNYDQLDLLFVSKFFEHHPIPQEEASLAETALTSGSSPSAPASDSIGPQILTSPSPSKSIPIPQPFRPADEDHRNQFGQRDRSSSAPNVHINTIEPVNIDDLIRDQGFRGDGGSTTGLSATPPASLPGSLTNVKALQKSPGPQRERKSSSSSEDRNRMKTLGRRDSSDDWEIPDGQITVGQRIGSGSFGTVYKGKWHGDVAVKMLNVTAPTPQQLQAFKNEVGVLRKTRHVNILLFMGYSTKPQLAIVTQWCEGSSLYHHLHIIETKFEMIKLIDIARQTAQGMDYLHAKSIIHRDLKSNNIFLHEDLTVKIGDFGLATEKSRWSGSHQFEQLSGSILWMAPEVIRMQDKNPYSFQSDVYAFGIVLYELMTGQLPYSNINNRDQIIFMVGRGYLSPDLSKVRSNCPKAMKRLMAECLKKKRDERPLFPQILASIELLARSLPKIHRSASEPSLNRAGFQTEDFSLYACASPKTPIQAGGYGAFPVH
Description: A cell-based assay was optimized to assay the ability of compounds to inhibit B-raf activity in a whole cell context. […] The cell-based assay quantifies the ratio of phospho-ERK1/2 to total ERK1/2 and can thereby assay the cellular inhibition of B-raf kinase activity. A375 cells are plated into 96 well plates and grown to confluence. The cells are then changed into starve media (DMEM/0.1% BSA) for 60 minutes. Compounds in DMSO dose curves are then diluted in starve media and added to cells. […] After a 60 minute incubation the cells are fixed for 20 minutes at RT in 4% formaldehyde with 0.1% Triton X-100, protease and phosphatase inhibitors in PBS. The cells are washed four times in PBS then blocked for 60 minutes using a one to one mix of Odyssey blocking buffer (Li-Cor Biosciences, Inc) and PBS. Primary antibodies (rabbit anti-phospho p42/p44 MAPK (P-ERK1/2) from Cell Signaling Technology and mouse anti-ERK2 from Santa Cruz Biotechnology) are diluted in blocking buffer, added to the cells and incubated overnight at 4° C. The cells are then washed four times in PBS/0.1% Tween-20. Secondary antibodies (anti-mouse IRDye 800CW from Rockland, Inc and anti-rabbit AlexaFlour680 from Molecular Probes) are diluted in blocking buffer/0.5% Tween and incubated on cells for 60 minutes. After 4 washes in PBS/0.1% Tween-20 the microplate is scanned on an Odyssey Infrared Imager (Li-Cor Bioscience) which can read the signal given by the two secondary antibodies on their respective channels. The ratio of P-ERK/total ERK is determined and IC50s generated using Excel-XLfit software.

Sequence of recombinant HuBraf V600E (P15056 whole entry V600E): as above

SMILES	IC50 (recombinant HuBraf V600E) [nM]	IC50 (V600E mutant B-raf) [nM]
Cc1ccc2c(Nc3ccc(C#N)cc3)nccc2c1Nc1ncccc1-c1ncnc2[nH]ccc12 [Example 40, 4-((6-methyl-5-((3-(7H-pyrrolo[2,3-d]pyrimidin-4-yl)-2-pyridinyl)amino)-1-isoquinolinyl)amino)benzonitrile]	3	23
Cc1ccc(OC(F)(F)F)cc1Nc1nccc2c(Nc3ncccc3-c3ncnc4[nH]ccc34)c(C)ccc12 [Example 41, 6-methyl-N-1-(2-methyl-5-((trifluoromethyl)oxy)phenyl)-N-5-(3-(7H-pyrrolo[2,3-d]pyrimidin-4-yl)-2-pyridinyl)-1,5-isoquinolinediamine]	35	107
Cc1ccc2c(Nc3ccc(Cl)cc3)nccc2c1Nc1ncccc1-c1ncnc2[nH]ccc12 [Example 42, N-1-(4-chlorophenyl)-6-methyl-N-5-(3-(7H-pyrrolo[2,3-d]pyrimidin-4-yl)-2-pyridinyl)-1,5-isoquinolinediamine]	3	5
C#Cc1cccc(Nc2nccc3c(Nc4ncccc4-c4ncnc5[nH]ccc45)c(C)ccc23)c1 [Example 43, N-1-(3-ethynylphenyl)-6-methyl-N~5~-(3-(7H-pyrrolo[2,3-d]pyrimidin-4-yl)-2-pyridinyl)-1,5-isoquinolinediamine]	3	10
Cc1ccc2c(Nc3ccc4c(c3)OC(F)(F)O4)nccc2c1Nc1ncccc1-c1ncnc2[nH]ccc12 [Example 44, N-1-(2,2-difluoro-1,3-benzodioxol-5-yl)-6-methyl-N-5-(3-(7H-pyrrolo[2,3-d]pyrimidin-4-yl)-2-pyridinyl)-1,5-isoquinolinediamine]	13	25
Cc1ccc2c(Nc3ccc4c(c3)C(F)(F)C(=O)N4C)nccc2c1Nc1ncccc1-c1ncnc2[nH]ccc12 [Example 45, 3,3-difluoro-1-methyl-5-((6-methyl-5-((3-(7H-pyrrolo[2,3-d]pyrimidin-4-yl)-2-pyridinyl)amino)-1-isoquinolinyl)amino)-1,3-dihydro-2H-indol-2-one]	8	15
Cc1ccc2c(Nc3ccc4c(c3)C(F)(F)C(=O)N4)nccc2c1Nc1ncccc1-c1ncnc2[nH]ccc12 [Example 46, 3,3-difluoro-5-((6-methyl-5-((3-(7H-pyrrolo[2,3-d]pyrimidin-4-yl)-2-pyridinyl)amino)-1-isoquinolinyl)amino)-1,3-dihydro-2H-indol-2-one]	15	25
Cc1ccc2c(Nc3ccc4c(c3)NC(=O)[C@@H]4C)nccc2c1Nc1ncccc1-c1ncnc2[nH]ccc12 [Example 47, (3R)-3-methyl-6-((6-methyl-5-((3-(7H-pyrrolo[2,3-d]pyrimidin-4-yl)-2-pyridinyl)amino)-1-isoquinolinyl)amino)-1,3-dihydro-2H-indol-2-one]	10	11
Cc1ccc2c(Nc3ccc4snc(C)c4c3)nccc2c1Nc1ncccc1-c1ncnc2[nH]ccc12 [Example 48, 6-methyl-N-1-(3-methyl-1,2-benzisothiazol-5-yl)-N-5-(3-(7H-pyrrolo[2,3-d]pyrimidin-4-yl)-2-pyridinyl)-1,5-isoquinolinediamine]	11	15
Cc1ccc2c(Nc3ccc4ncsc4c3)nccc2c1Nc1ncccc1-c1ncnc2[nH]ccc12 [Example 49, N-1-1,3-benzothiazol-6-yl-6-methyl-N-5-(3-(7H-pyrrolo[2,3-d]pyrimidin-4-yl)-2-pyridinyl)-1,5-isoquinolinediamine]	7	10
Cc1ccc2c(Nc3ccc4c(c3)NC(=O)C4)nccc2c1Nc1ncccc1-c1ncnc2[nH]ccc12 [Example 50, 6-((6-methyl-5-((3-(7H-pyrrolo[2,3-d]pyrimidin-4-yl)-2-pyridinyl)amino)-1-isoquinolinyl)amino)-1,3-dihydro-2H-indol-2-one]	12	45
Cc1ccc2c(Nc3ccc4c(c3)NC(=O)C4(C)C)nccc2c1Nc1ncccc1-c1ncnc2[nH]ccc12 [Example 51, 3,3-dimethyl-6-((6-methyl-5-((3-(7H-pyrrolo[2,3-d]pyrimidin-4-yl)-2-pyridinyl)amino)-1-isoquinolinyl)amino)-1,3-dihydro-2H-indol-2-one]	25	12
Cc1ccc2c(Nc3ccc4c(C)cc(=O)[nH]c4c3)nccc2c1Nc1ncccc1-c1ncnc2[nH]ccc12 [Example 52, 4-methyl-7-((6-methyl-5-((3-(7H-pyrrolo[2,3-d]pyrimidin-4-yl)-2-pyridinyl)amino)-1-isoquinolinyl)amino)-2(1H)-quinolinone]	7	7
Cc1ccc2c(Nc3ccc(C(F)(F)F)cc3)nccc2c1Nc1ncccc1-c1ncnc2[nH]ccc12 [Example 53, 6-methyl-N-5-(3-(7H-pyrrolo[2,3-d]pyrimidin-4-yl)-2-pyridinyl)-N-1-(4-(trifluoromethyl)phenyl)-1,5-isoquinolinediamine]	47	52
Cc1ccc2c(Nc3ccc4c(c3)C(F)(F)OC(F)(F)O4)nccc2c1Nc1ncccc1-c1ncnc2[nH]ccc12 [Example 54, 6-methyl-N-5-(3-(7H-pyrrolo[2,3-d]pyrimidin-4-yl)-2-pyridinyl)-N-1-(2,2,4,4-tetrafluoro-4H-1,3-benzodioxin-6-yl)-1,5-isoquinolinediamine]	205	99
Cc1ccc(C(F)(F)F)cc1Nc1nccc2c(Nc3nc(Cl)ncc3-c3ncnc4[nH]ccc34)c(C)ccc12 [Example 55, N-5-(2-chloro-5-(7H-pyrrolo[2,3-d]pyrimidin-4-yl)-4-pyrimidinyl)-6-methyl-N-1-(2-methyl-5-(trifluoromethyl)phenyl)-1,5-isoquinolinediamine]	15	86
Cc1ccc2c(Nc3ccc(C#N)cc3)nccc2c1Nc1ncccc1-c1ncnc2[nH]cnc12 [Example 57, 4-((6-methyl-5-((3-(9H-purin-6-yl)-2-pyridinyl)amino)-1-isoquinolinyl)amino)benzonitrile]	0.6	4
Cc1ccc2c(Nc3cccc(C(F)(F)F)c3)nccc2c1Nc1ncccc1-c1ncnc2[nH]cnc12 [Example 58, 6-methyl-N-5-(3-(9H-purin-6-yl)-2-pyridinyl)-N-1-(3-(trifluoromethyl)phenyl)-1,5-isoquinolinediamine]	6	6
Cc1ccc2c(Nc3ccc4c(c3)OC(F)(F)O4)nccc2c1Nc1ncccc1-c1ncnc2[nH]cnc12 [Example 59, N-1-(2,2-difluoro-1,3-benzodioxol-5-yl)-6-methyl-N-5-(3-(9H-purin-6-yl)-2-pyridinyl)-1,5-isoquinolinediamine]	6	6
Cc1ccc2c(Nc3ccc(C#N)cc3)ncnc2c1Nc1ncccc1-c1ncnc2[nH]ccc12 [Example 60, 4-((7-methyl-8-((3-(7H-pyrrolo[2,3-d]pyrimidin-4-yl)-2-pyridinyl)amino)-4-quinazolinyl)amino)benzonitrile]	10	233
Cc1ccc2c(Nc3ccc(C#N)cc3)ncnc2c1Nc1ncccc1-c1ncnc2[nH]cnc12 [Example 61, 4-((7-methyl-8-((3-(9H-purin-6-yl)-2-pyridinyl)amino)-4-quinazolinyl)amino)benzonitrile]	2	103
Cc1ccc2c(Nc3ccc(Cl)cc3)nccc2c1Nc1ncccc1-c1ncnc2cc[nH]c12 [Example 62, N-1-(4-chlorophenyl)-6-methyl-N-5-(3-(5H-pyrrolo[3,2-d]pyrimidin-4-yl)-2-pyridinyl)-1,5-isoquinolinediamine]	20	282
Cc1ccc2c(Nc3ccc(C#N)cc3)nccc2c1Nc1ncccc1-c1ncnc2cc[nH]c12 [Example 63, 4-((6-methyl-5-((3-(5H-pyrrolo[3,2-d]pyrimidin-4-yl)-2-pyridinyl)amino)-1-isoquinolinyl)amino)benzonitrile]	171	1000
Cc1ccc2c(Nc3ccc4c(c3)OC(F)(F)O4)nccc2c1Nc1ncccc1-c1ncnc2cc[nH]c12 [Example 64, N-1-(2,2-difluoro-1,3-benzodioxol-5-yl)-6-methyl-N-5-(3-(5H-pyrrolo[3,2-d]pyrimidin-4-yl)-2-pyridinyl)-1,5-isoquinolinediamine]	302	111
Cc1ccc2c(Nc3cccc(C(F)(F)F)c3)nccc2c1Nc1ncccc1-c1ncnc2[nH]ncc12 [Example 65, 6-methyl-N-5-(3-(1H-pyrazolo[3,4-d]pyrimidin-4-yl)-2-pyridinyl)-N-1-(3-(trifluoromethyl)phenyl)-1,5-isoquinolinediamine]	8	8
